Data on 14 compounds can be found in patent publication US9133228B2, “Guanidinyl-substituted polyamides useful for treating human papilloma virus” (Nanovir, LLC, priority 2011, dated 2015).

What all share (format): cell-based, Human papilloma virus
One assay relates to HPV16. Put plainly: Inhibition of viral replication in cells that maintain HPV16 DNA, viral DNA quantified by real-time PCR. An excerpt:
(§1) Table 1a lists a number of exemplary polyamides synthesized in accordance with the present invention. The HPLC/MW values given in Table 1b were obtained using low resolution high pressure liquid chromatography/mass spectrometry (LR HPLC/MS), which provides moderate precision masses of single isotopomers rather than average molecular weights or exact masses. Table 2 presents a summary of measured IC50 values of certain of these polyamides against HPV16, HPV18 and HPV31. The IC50 is the concentration of compound required for 50% inhibition of viral replication in vitro. The polyamides were tested in cells that maintain HPV16, HPV18 or HPV31 DNA. Cells maintaining the selected HPV were cultured for 72 hours in the presence of the polyamide. Viral DNA was then quantified using real-time PCR and compared to vehicle (DMSO)-treated control cultures. […] Table 3 presents a summary of measured IC50 and IC90 values of certain of these polyamides against HPV16, HPV18 and HPV31.
(In general: Real-time PCR tracks product formation cycle by cycle.)

A further assay relates to HPV18. Kind of assay: Inhibition of viral replication in cells that maintain HPV18 DNA, viral DNA quantified by real-time PCR.
Text: as §1

The test system of the next assay is HPV31. Kind of assay: Inhibition of viral replication in cells that maintain HPV31 DNA, viral DNA quantified by real-time PCR.
Text: as §1

The mark [1] stands for this setting: cells maintaining HPV16 cultured 72 hours with polyamide, vs DMSO control, highest dose tested 10 μM.
[2] abbreviates: cells maintaining HPV18 cultured 72 hours with polyamide, vs DMSO control, highest dose tested 10 μM.
Setting [3] is: cells maintaining HPV31 cultured 72 hours with polyamide, vs DMSO control, highest dose tested 10 μM.

The term IC50 denotes the concentration that inhibits the measured activity by half. Consider `CN(CCCN)CCCNC(=O)CCNC(=O)c1cc(NC(=O)c2cc(NC(=O)c3cc(NC(=O)c4cc(NC(=O)CCNC(=O)c5cc(NC(=O)c6cc(NC(=O)CCCNC(=O)c7cc(NC(=O)c8cc(NC(=O)c9cc(NC(=O)CCNC(=O)c%10cc(N=C(N(C)C)N(C)C)cn%10C)cn9C)cn8C)cn7C)cn6C)cn5C)cn4C)cn3C)cn2C)cn1C` [NV1082, TMG-PyβPyPyPy-γ-PyPyβPyPyPyPyβ-Ta•3TFA], for which the IC50 in the assay with HPV16 (setting [1]), in the assay with HPV18 (setting [2]) and with HPV31 (setting [3]) was over 10000 nM throughout.
On to `CN(C)CCCNC(=O)CCNC(=O)c1cc(NC(=O)CCNC(=O)c2cc(NC(=O)c3cc(NC(=O)c4cc(NC(=O)CCNC(=O)c5cc(NC(=O)c6cc(NC(=O)c7cc(NC(=O)[C@H](N)CCNC(=O)c8cc(NC(=O)CCNC(=O)c9cc(NC(=O)c%10cc(NC(=O)CCNC(=O)c%11cc(NC(=O)c%12cc(NC(=O)c%13cc(N=C(N(C)C)N(C)C)cn%13C)cn%12C)cn%11C)cn%10C)cn9C)cn8C)cn7C)cn6C)cn5C)cn4C)cn3C)cn2C)cn1C` [NV1077, TMG-PyPyPyβPyPyβPy-γNH2-PyPyPyβPyPyPyβPyβ-Dp], for which the IC50 with HPV16 (setting [1]) is 95 nM; in the assay on HPV18 (setting [2]), 15 nM; in the assay on HPV31 (setting [3]), 32 nM.
As to `CN(CCCN)CCCNC(=O)CCNC(=O)c1cc(NC(=O)CCNC(=O)c2cc(NC(=O)c3cc(NC(=O)c4cc(NC(=O)CCNC(=O)c5cc(NC(=O)c6cc(NC(=O)c7cc(NC(=O)[C@H](N)CCNC(=O)c8cc(NC(=O)CCNC(=O)c9cc(NC(=O)c%10cc(NC(=O)CCNC(=O)c%11cc(NC(=O)c%12cc(NC(=O)c%13cc(N=C(N(C)C)N(C)C)cn%13C)cn%12C)cn%11C)cn%10C)cn9C)cn8C)cn7C)cn6C)cn5C)cn4C)cn3C)cn2C)cn1C` [NV1076, TMG-PyPyPyβPyPyβPy-γNH2-PyPyPyβPyPyPyβPyβ-Ta], the results for the IC50 in the assay with HPV16 (setting [1]), with HPV18 (setting [2]) and in the assay on HPV31 (setting [3]) were 67 nM, 48 nM and 104 nM, respectively.
Consider `CN(CCCN)CCCNC(=O)c1cc(NC(=O)c2cc(NC(=O)CCNC(=O)c3cc(NC(=O)c4cc(NC(=O)c5cc(NC(=O)CCNC(=O)c6cc(NC(=O)c7cc(NC(=O)CCNC(=O)c8cc(NC(=O)[C@H](N)CCNC(=O)c9nc(NC(=O)c%10cc(NC(=O)CCNC(=O)c%11cc(NC(=O)c%12cc(NC(=O)CCNC(=O)c%13cc(NC(=O)c%14cc(N=C(N(C)C)N(C)C)cn%14C)cn%13C)cn%12C)cn%11C)cn%10C)cn9C)cn8C)cn7C)cn6C)cn5C)cn4C)cn3C)cn2C)cn1C` [NV1071, TMG-PyPyβPyPyβPyIm-γNH2-PyβPyPyβPyPyPyβPyPy-Ta•5TFA], for which the IC50 came out at 255 nM in the assay with HPV16 (setting [1]), 93 nM with HPV18 (setting [2]) and 95 nM with HPV31 (setting [3]).
`CN(CCCN)CCCNC(=O)CCNC(=O)c1cc(NC(=O)c2cc(NC(=O)c3cc(NC(=O)CCNC(=O)c4cc(NC(=O)c5cc(NC(=O)c6cc(NC(=O)CCNC(=O)c7cc(NC(=O)c8cc(NC(=O)CCCNC(=O)c9cc(NC(=O)c%10cc(NC(=O)CCNC(=O)c%11nc(NC(=O)c%12cc(NC(=O)c%13cc(NC(=O)CCNC(=O)c%14cc(N=C(N(C)C)N(C)C)cn%14C)cn%13C)cn%12C)cn%11C)cn%10C)cn9C)cn8C)cn7C)cn6C)cn5C)cn4C)cn3C)cn2C)cn1C` [NV1078, TMG-PyβPyPyImβPyPy-γ-PyPyβPyPyPyβPyPyPyβ-Ta•4TFA]: the values for the IC50 in the assay with HPV16 (setting [1]), in the assay with HPV18 (setting [2]) and in the assay with HPV31 (setting [3]) were 32 nM, 27 nM and 35 nM, respectively.
Take `CN(CCCN)CCCNC(=O)CCNC(=O)c1cc(NC(=O)c2cc(NC(=O)c3cc(NC(=O)c4cc(NC(=O)CCNC(=O)c5cc(NC(=O)c6cc(NC(=O)CCCNC(=O)c7cc(NC(=O)c8cc(NC(=O)c9cc(NC(=O)CCNC(=O)c%10cc(NC(=O)c%11cc(N=C(N(C)C)N(C)C)cn%11C)cn%10C)cn9C)cn8C)cn7C)cn6C)cn5C)cn4C)cn3C)cn2C)cn1C` [NV1084, TMG-PyPyβPyPyPy-γ-PyPyβPyPyPyPyβ-Ta•3TFA]: the IC50 in the assay with HPV16 (setting [1]) was 1910 nM; in the assay on HPV18 (setting [2]), 1040 nM; in the assay on HPV31 (setting [3]), 7320 nM.
In general, IC90 refers to the point of the concentration-response curve where the effect stands at 90%. High values mean a need for much substance, low ones an effect from little substance. As for `CN(CCCN)CCCNC(=O)CCNC(=O)c1cc(NC(=O)CCNC(=O)c2cc(NC(=O)c3cc(NC(=O)c4cc(NC(=O)CCNC(=O)c5cc(NC(=O)c6cc(NC(=O)c7cc(NC(=O)CCCNC(=O)c8cc(NC(=O)CCNC(=O)c9cc(NC(=O)c%10cc(NC(=O)CCNC(=O)c%11cc(NC(=O)c%12cc(N=C(N(C)C)N(C)C)cn%12C)cn%11C)cn%10C)cn9C)cn8C)cn7C)cn6C)cn5C)cn4C)cn3C)cn2C)cn1C` [NV1097, TMG-PyPyβPyPyβPy-γ-PyPyPyβPyPyPyβPyβ-Ta•3TFA], the IC50 in the assay on HPV16 (Table 3, 72 hours) was found to be 70 nM; with HPV16 (setting [1]), 70 nM; with HPV18 (Table 3, 72 hours), 257 nM; in the assay with HPV18 (setting [2]), 257 nM; with HPV31 (Table 3, 72 hours) it was 40 nM; in the assay with HPV31 (setting [3]) it was 40 nM. The IC90 in the assay on HPV16 (Table 3, 72 hours) is 1410 nM; in the assay with HPV18 (Table 3, 72 hours), over 10000 nM; in the assay with HPV31 (Table 3, 72 hours) it was 10000 nM.
As for `CN(CCCN)CCCNC(=O)CCNC(=O)c1cc(NC(=O)CCNC(=O)c2cc(NC(=O)c3cc(NC(=O)c4cc(NC(=O)CCNC(=O)c5cc(NC(=O)c6cc(NC(=O)CCNC(=O)c7cc(NC(=O)CCCNC(=O)c8nc(NC(=O)c9cc(NC(=O)CCNC(=O)c%10cc(NC(=O)c%11cc(NC(=O)CCNC(=O)c%12cc(NC(=O)c%13cc(N=C(N(C)C)N(C)C)cn%13C)cn%12C)cn%11C)cn%10C)cn9C)cn8C)cn7C)cn6C)cn5C)cn4C)cn3C)cn2C)cn1C` [NV1090, TMG-PyPyβPyPyβPyIm-γ-PyβPyPyβPyPyPyβPyβ-Ta•4TFA], the IC50 came to 51 nM in the assay on HPV16 (setting [1]), 53 nM with HPV18 (setting [2]) and 22 nM in the assay with HPV31 (setting [3]).
For the compound `CN(CCCN)CCCNC(=O)CCNC(=O)c1cc(NC(=O)CCNC(=O)c2cc(NC(=O)c3cc(NC(=O)c4cc(NC(=O)CCNC(=O)c5cc(NC(=O)c6cc(NC(=O)c7cc(NC(=O)[C@@H](CCNC(=O)c8cc(NC(=O)CCNC(=O)c9cc(NC(=O)c%10cc(NC(=O)CCNC(=O)c%11cc(NC(=O)c%12cc(NC(=O)c%13cc(N=C(N(C)C)N(C)C)cn%13C)cn%12C)cn%11C)cn%10C)cn9C)cn8C)NC(=O)NCCCN(C)CCCN)cn7C)cn6C)cn5C)cn4C)cn3C)cn2C)cn1C` [NV1074, TMG-PyPyPyβPyPyβPy-γNHR′-PyPyPyβPyPyPyβPyβ-Ta•5TFA], the figures for the IC50 in the assay on HPV16 (setting [1]), in the assay with HPV18 (setting [2]) and with HPV31 (setting [3]) were 178 nM, 41 nM and 52 nM, respectively.
On to `CN(C)CCCNC(=O)CCNC(=O)c1cc(NC(=O)c2cc(NC(=O)c3cc(NC(=O)CCNC(=O)c4cc(NC(=O)c5cc(NC(=O)c6cc(NC(=O)CCNC(=O)c7cc(NC(=O)c8cc(NC(=O)CCCNC(=O)c9cc(NC(=O)c%10cc(NC(=O)CCNC(=O)c%11nc(NC(=O)c%12cc(NC(=O)c%13cc(NC(=O)CCNC(=O)c%14cc(NC(=O)c%15cc(N=C(N(C)C)N(C)C)cn%15C)cn%14C)cn%13C)cn%12C)cn%11C)cn%10C)cn9C)cn8C)cn7C)cn6C)cn5C)cn4C)cn3C)cn2C)cn1C` [NV1086, TMG-PyPyβPyPyImβPyPy-γ-PyPyβPyPyPyβPyPyPyβ-Dp•3TFA], for which the IC50 in the assay with HPV16 (setting [1]) was found to be 43 nM; in the assay with HPV18 (setting [2]), 62 nM; in the assay on HPV31 (setting [3]) it was 16 nM.
In the same order, the values of `CN(C)CCCNC(=O)CCNC(=O)c1cc(NC(=O)CCNC(=O)c2cc(NC(=O)c3cc(NC(=O)c4cc(NC(=O)CCNC(=O)c5cc(NC(=O)c6cc(NC(=O)c7cc(NC(=O)[C@@H](CCNC(=O)c8cc(NC(=O)CCNC(=O)c9cc(NC(=O)c%10cc(NC(=O)CCNC(=O)c%11cc(NC(=O)c%12cc(NC(=O)c%13cc(N=C(N(C)C)N(C)C)cn%13C)cn%12C)cn%11C)cn%10C)cn9C)cn8C)NC(=O)NCCCN(C)C)cn7C)cn6C)cn5C)cn4C)cn3C)cn2C)cn1C` [NV1079, TMG-PyPyPyβPyPyβPy-γNHR″-PyPyPyβPyPyPyβPyβ-Dp•3TFA] are 42 nM, 17 nM and 37 nM.
Consider “TMG-PyPyβPyPyβ-γNH2-PyPyPyβPyPyPyβPyβ-Ta•4TFA [NV1095]”, for which the IC50 in the assay on HPV16 (setting [1]) is 204 nM; with HPV18 (setting [2]), over 10000 nM; in the assay with HPV31 (setting [3]), 49 nM.
In the same order, the values of `CN(CCCN)CCCNC(=O)CCNC(=O)c1cc(NC(=O)CCNC(=O)c2cc(NC(=O)c3cc(NC(=O)c4cc(NC(=O)CCNC(=O)c5cc(NC(=O)c6cc(NC(=O)CCNC(=O)c7cc(NC(=O)[C@H](N)CCNC(=O)c8nc(NC(=O)c9cc(NC(=O)CCNC(=O)c%10cc(NC(=O)c%11cc(NC(=O)CCNC(=O)c%12cc(NC(=O)c%13cc(N=C(N(C)C)N(C)C)cn%13C)cn%12C)cn%11C)cn%10C)cn9C)cn8C)cn7C)cn6C)cn5C)cn4C)cn3C)cn2C)cn1C` [NV1096, TMG-PyPyβPyPyβPyIm-γNH2-PyβPyPyβPyPyPyβPβ-Ta•5TFA] are 24 nM, 36 nM and 35 nM.
Regarding `CN(CCCN)CCCNC(=O)CCNC(=O)c1cc(NC(=O)c2cc(NC(=O)c3cc(NC(=O)CCNC(=O)c4cc(NC(=O)c5cc(NC(=O)c6cc(NC(=O)CCNC(=O)c7cc(NC(=O)c8cc(NC(=O)CCCNC(=O)c9cc(NC(=O)c%10cc(NC(=O)CCNC(=O)c%11nc(NC(=O)c%12cc(NC(=O)c%13cc(NC(=O)CCNC(=O)c%14cc(NC(=O)c%15cc(N=C(N(C)C)N(C)C)cn%15C)cn%14C)cn%13C)cn%12C)cn%11C)cn%10C)cn9C)cn8C)cn7C)cn6C)cn5C)cn4C)cn3C)cn2C)cn1C` [NV1085, TMG-PyPyβPyPyImβPyPy-γ-PyPyβPyPyPyβPyPyPyβ-Ta•4TFA], the IC50 in the assay on HPV16 (setting [1]) was determined as 29 nM; in the assay with HPV18 (setting [2]), 41 nM; in the assay on HPV31 (setting [3]) it was 32 nM.
